Test results reported in EP4471048A1, “PEPTIDE INHIBITORS OF INTERLEUKIN-23 RECEPTOR” (Zealand Pharma A/S, priority 2023, dated 2024).

Biological target: T1, human IL-23R (Homo sapiens, UniProt Q5VWK5)
T1 sequence (Q5VWK5 22-629): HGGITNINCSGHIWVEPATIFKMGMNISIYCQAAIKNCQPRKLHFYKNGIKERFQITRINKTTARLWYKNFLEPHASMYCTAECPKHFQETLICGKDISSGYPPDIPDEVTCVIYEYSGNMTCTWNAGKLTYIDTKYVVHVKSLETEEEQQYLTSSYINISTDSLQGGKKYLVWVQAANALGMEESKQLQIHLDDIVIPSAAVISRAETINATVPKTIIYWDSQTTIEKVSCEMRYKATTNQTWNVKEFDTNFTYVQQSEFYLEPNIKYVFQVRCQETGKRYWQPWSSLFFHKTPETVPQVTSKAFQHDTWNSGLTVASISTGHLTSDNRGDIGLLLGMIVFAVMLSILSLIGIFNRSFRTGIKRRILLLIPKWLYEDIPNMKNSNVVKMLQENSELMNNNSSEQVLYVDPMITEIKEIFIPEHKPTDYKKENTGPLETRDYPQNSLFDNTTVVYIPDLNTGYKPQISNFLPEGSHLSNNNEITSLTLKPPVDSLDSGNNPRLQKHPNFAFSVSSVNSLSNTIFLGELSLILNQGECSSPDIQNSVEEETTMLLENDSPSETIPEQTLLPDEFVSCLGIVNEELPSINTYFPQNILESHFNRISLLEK
Assay: biochemical
Settings: for Emax: read-out: % displacement (hIL-23R NIuc)
Description: The compound binding affinity for IL-23R was estimated by the ability of compounds to displace a fluorophore-labelled reference compound from the human IL-23R. The assay principle relies on Bioluminescence Resonance Energy Transfer (BRET) between a fluorophore-labelled reference compound binding to the IL-23R part of a fusion protein consisting of the IL-23R fused to a Nanoluc luciferase enzyme (Nanoluc). The Nanoluc is placed in the N-terminus in close proximity to the binding domain of the ligand. Upon close proximity between the fluorophore of the fluorophore-labelled compound and the Nanoluc of the fusion protein, bioluminescence energy generated from conversion of a Nanoluc substrate, is transferred to the fluorophore resulting in an increase in BRET. In presence of an unlabelled compound, the unlabelled compound displaces the fluorophore-labelled peptide from its binding site resulting in a decrease in BRET. The concentration for which half of the fluorophore-labelled peptide is displaced by the unlabelled compound depends on the affinity of the compound for the IL-23R, and is termed the IC50 concentration.
The plasmid also contained a gene to confer resistance for the antibiotic hygromycin. A cell line stably expressing the Nluc-IL23R fusion protein was generated by transfection of HEK293 cells with the expression plasmid and selected with hygromycin for 3 weeks in Growth medium consisting of DMEM w/ Glutamax-I containing, 10% V/V FBS, 1% V/V P/S, 1 mM Sodium Pyruvate, and 1X NEAA, and 0.3 mg/mL hygromycin. The remaining cells were propagated and considered a stable expressing Nluc-IL23R fusion protein pool clone.
Cells expressing the Nluc-IL23R fusion protein were expanded in Growth medium and membranes prepared by homogenization of a cell pellet from 18 T175 flasks (4 °C in subsequent steps). The cell pellet was lysed Tris 10 mM, 7.5, 1 mM EDTA and protease inhibitors (Complete, Roche) and homogenized using a 15 mL glass-dounce by 50 strokes. The homogenate was spun at spin @1500 rpm for 10 min, the supernatant transferred to SV-34 tubes and spun at 40000g for 20 min at 4 °C to pellet the crude membranes. The supernatant was then removed, the pellet resuspended in 5 mL buffer containing 50 mM HEPES pH 7.4, 5 mM EGTA, and 5 mM MgCl2, and homogenized. Aliquots of the resuspended and homogenized membranes containing the Nluc-IL23R fusion protein were stored at -80 °C until use.
The plate was sealed with light impermeable plate seals, and incubated on an orbital shaker 400 rpm for 2 hours at room temperature. To determine the BRET ratio, the plate seal was removed and 25 µL of the Nanoluc substrate (Promega N1572) diluted 1:500 was added to each well and incubated for 1-2 minutes on an orbital shaker at 400 rpm. […] The BRET ratio was calculated as the fluorescence from the TAMRA/nanoluc bioluminescence.
Compound potency (IC50) and maximal displacement (% displacement) were estimated by computer-aided curve fitting using a 4-parameter logistic (4PL) non-linear model. […]
In this application, the inventors provide the data as IC50 values.

Row | IC50 | Emax | SMILES
1 | 0.029 nM | 102% | CC(C)C[C@]1(C)NC(=O)[C@H](Cc2ccc3ccccc3c2)NC(=O)[C@H](Cc2ccc(OCCN)cc2)NC(=O)[C@@H]2CCC(=O)N[C@@H](CCCCCNC(=O)CC[C@@H](C(=O)N[C@@H](CCN)C(=O)N[C@@H](Cc3cccnc3)C(N)=O)NC1=O)C(=O)N[C@@H]([C@@H](C)O)C(=O)N[C@@H](C(C)C)C(=O)N[C@@H](Cc1c[nH]c3ccccc13)C(=O)N[C@@H](CCC(N)=O)C(=O)N2 [Compound 4, [hLys](1c)(6c)^†TVWQE(6c)[Y(2-aminoethoxy)][2-Nal][2-Me-Leu]E(1c)[Dab][3-(3-Pyridyl)-Ala]-[NH2]]
2 | 1.9 nM | 96% | CNC(=O)[C@H](Cc1cccnc1)NC(=O)[C@H](CCN)NC(=O)[C@@H]1CCC(=O)NCCCC[C@@H]2C(=O)N[C@@H]([C@@H](C)O)C(=O)N[C@@H](Cc3c[nH]c4ccccc34)C(=O)N[C@@H](CCC(N)=O)C(=O)N[C@@H](CCc3cn2nn3)C(=O)N[C@@H](Cc2ccc(OCCN)cc2)C(=O)N[C@@H](Cc2ccc3ccccc3c2)C(=O)N[C@@](C)(CC(C)C)C(=O)N1 [Compound 42, [{d}(N3)-K](1c)(6g)^†TWQ[Hpg](6g)[Y(2-aminoethoxy)][2-Nal][2-Me-Leu]E(1c)[Dab][3-(3-Pyridyl)-Ala]-[NHMe]]
3 | 0.76 nM | 102% | CCCCc1ccc(C[C@@H]2NC(=O)[C@@H]3CCC(=O)N[C@@H](CCCCNC(=O)CC[C@@H](C(=O)N[C@@H](CCN)C(=O)N[C@@H](Cc4cccnc4)C(=O)NC)NC(=O)[C@](C)(CC(C)C)NC(=O)[C@H](Cc4ccc5ccccc5c4)NC2=O)C(=O)N[C@@H]([C@@H](C)CC)C(=O)N[C@@H](C(C)C)C(=O)N[C@@H](Cc2c[nH]c4ccccc24)C(=O)N[C@@H](CCC(N)=O)C(=O)N3)cc1 [Compound 33, K(1c)(6c)^†IVWQE(6c)[F(4-Bu)][2-Nal][2-Me-Leu]E(1c)[Dab][3-(3-Pyridyl)-Ala]-[NHMe]]
4 | 480 nM | 95% | CC[C@H](C)[C@@H]1NC(=O)[C@@H]2CCCCNC(=O)CC[C@@H](C(=O)NCCCCCCc3cccnc3)NC(=O)[C@](C)(C(C)C)NC(=O)[C@H](Cc3ccc4ccccc4c3)NC(=O)[C@H](Cc3ccc(OCCN)cc3)NC(=O)[C@H](CCC(=O)N2)NC(=O)[C@H](CCC(N)=O)NC(=O)[C@H](Cc2c[nH]c3ccccc23)NC(=O)[C@H](C(C)C)NC1=O [Compound 29, K(1c)(6c)^†IVWQE(6c)[Y(2-aminoethoxy)][2-Nal][2-Me-Val]E(1c)-[NH-6-(pyridin-3-yl)hexanyl]]
5 | 12 nM | – | CNC(=O)[C@H](Cc1cccnc1)NC(=O)[C@H](CCN)NC(=O)[C@@H]1CCC(=O)NCC[C@@H]2NC(=O)CC[C@H](NC(=O)[C@H](CCC(N)=O)NC(=O)[C@H](Cc3c[nH]c4ccccc34)NC(=O)CNC2=O)C(=O)N[C@@H](Cc2ccc(OCCN)cc2)C(=O)N[C@@H](Cc2ccc3ccccc3c2)C(=O)N[C@@](C)(CC(C)C)C(=O)N1 [Compound 92, [Dab](1c)(6c)^†GWQE(6c)[Y(2-aminoethoxy)][2-Nal][2-Me-Leu]E(1c)[Dab][3-(3-Pyridyl)-Ala]-[NHMe]]
6 | 290 nM | 105% | COc1ccc(C[C@@H]2NC(=O)[C@@H]3CCC(=O)N[C@@H](CCCCNC(=O)CC[C@@H](C(=O)N[C@@H](CCCCNC(=O)Cc4ccncc4)C(N)=O)NC(=O)[C@](C)(CC(C)C)NC(=O)[C@H](Cc4ccc5ccccc5c4)NC2=O)C(=O)N[C@@H]([C@@H](C)O)C(=O)N[C@@H](C(C)C)C(=O)N[C@@H](Cc2c[nH]c4ccccc24)C(=O)N[C@@H](CCC(N)=O)C(=O)N3)cc1 [Compound 54, K(1c)(6c)^†TVWQE(6c)[Y(Me)][2-Nal][2-Me-Leu]E(1c)[K(4-pyridylacetyl)]-[NH2]]
7 | 6.4 nM | 101% | CNC(=O)[C@H](Cc1cccnc1)NC(=O)[C@H](CCN)NC(=O)[C@@H]1CCC(=O)NCCC[C@@H]2NC(=O)CC[C@H](NC(=O)[C@H](CCC(N)=O)NC(=O)[C@H](Cc3c[nH]c4ccccc34)NC(=O)CNC2=O)C(=O)N[C@@H](Cc2ccc(OCCN)cc2)C(=O)N[C@@H](Cc2ccc3ccccc3c2)C(=O)N[C@@](C)(CC(C)C)C(=O)N1 [Compound 90, [Orn](1c)(6c)^†GWQE(6c)[Y(2-aminoethoxy)][2-Nal][2-Me-Leu]E(1c)[Dab][3-(3-Pyridyl)-Ala]-[NHMe]]
